Measurements taken from PMC10698726 (Molecular Pharmaceutics, 2023).
Where two headings read alike, the source gives them in different places.

Assays:
OCT3 = biological target: T1, OCT3 (Homo sapiens, UniProt O75751); test: Inhibition of model substrate uptake in OCT3-overexpressing HEK293 cells; type: cell-based; conditions: for stereoselective inhibition of OCT3 (in words): ethambutol and zolmitriptan as substrates
T1 construct: expressed in transfected cells; host or cells: HEK293
T1 sequence (O75751 1-556): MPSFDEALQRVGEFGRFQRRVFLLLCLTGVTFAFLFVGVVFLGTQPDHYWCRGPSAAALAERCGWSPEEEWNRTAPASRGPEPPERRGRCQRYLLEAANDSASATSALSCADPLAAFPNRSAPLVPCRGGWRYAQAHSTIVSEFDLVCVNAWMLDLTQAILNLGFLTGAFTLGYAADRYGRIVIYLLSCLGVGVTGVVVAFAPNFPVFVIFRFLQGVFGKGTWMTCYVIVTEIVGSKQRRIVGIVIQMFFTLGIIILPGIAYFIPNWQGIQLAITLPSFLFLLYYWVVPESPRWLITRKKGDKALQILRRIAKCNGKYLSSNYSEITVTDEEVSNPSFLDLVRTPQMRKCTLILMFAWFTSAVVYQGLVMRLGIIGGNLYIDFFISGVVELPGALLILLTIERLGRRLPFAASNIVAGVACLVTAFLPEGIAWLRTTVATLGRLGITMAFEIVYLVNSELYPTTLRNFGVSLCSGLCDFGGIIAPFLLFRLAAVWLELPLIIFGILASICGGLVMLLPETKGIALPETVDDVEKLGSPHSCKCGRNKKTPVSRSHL
Summary of the method: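 Transporter-overexpressing HEK293 cells were incubated 5 min in HBSS+ with 2 μM model substrate, with or without 20 μM inhibitor or increasing inhibitor concentrations. Uptake was read as ASP^+ fluorescence or by LC–MS/MS, with empty-vector uptake subtracted. IC50 came from a Hill fit of activity versus log concentration.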

OCT1 = biological target: T2, OCT1 (Homo sapiens, UniProt O15245); test: Inhibition of model substrate uptake in OCT1-overexpressing HEK293 cells; type: cell-based; parameters: expressed in transfected cells; host or cells: HEK293; conditions: for selectivity ratio at 5 min / inhibition at 5 min, 20 μM: OCT1-overexpressing HEK293 cells; for selectivity ratio at 5 min: pH 7.4, OCT1, read-out: x-fold Stereoselectivity
T2 sequence (O15245 1-554): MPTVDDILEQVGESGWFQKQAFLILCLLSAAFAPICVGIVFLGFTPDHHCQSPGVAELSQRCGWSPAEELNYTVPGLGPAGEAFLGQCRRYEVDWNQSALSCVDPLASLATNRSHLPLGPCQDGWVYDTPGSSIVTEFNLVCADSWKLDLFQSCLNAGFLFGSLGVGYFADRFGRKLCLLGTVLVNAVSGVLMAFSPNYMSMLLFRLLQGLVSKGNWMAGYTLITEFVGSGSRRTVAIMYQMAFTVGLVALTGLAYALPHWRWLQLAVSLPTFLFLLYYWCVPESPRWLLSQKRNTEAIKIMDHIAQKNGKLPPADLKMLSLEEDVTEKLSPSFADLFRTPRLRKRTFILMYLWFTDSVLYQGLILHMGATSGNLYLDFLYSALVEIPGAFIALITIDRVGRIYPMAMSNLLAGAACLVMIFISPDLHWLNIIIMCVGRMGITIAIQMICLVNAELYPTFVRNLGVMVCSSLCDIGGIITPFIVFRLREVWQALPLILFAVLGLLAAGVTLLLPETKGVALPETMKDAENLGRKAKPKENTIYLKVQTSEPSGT
Protocol: Koepsell and Gorbulev (University of Würzburg, Germany).
Fluorescence quantification was performed in technical duplicates.

OCT2 = biological target: T3, OCT2 (Homo sapiens, UniProt O15244); test: Inhibition of model substrate uptake in OCT2-overexpressing HEK293 cells; conditions: for selectivity ratio at 5 min / inhibition at 5 min, 20 μM: OCT2-overexpressing HEK293 cells; for inhibition at 5 min, 20 μM / (S,S)-Ethambutol inhibition [%] / ASP+ inhibition [%] / N-Ethyllidocaine inhibition [%]: 20 μM inhibitor
T3 sequence (O15244 1-555): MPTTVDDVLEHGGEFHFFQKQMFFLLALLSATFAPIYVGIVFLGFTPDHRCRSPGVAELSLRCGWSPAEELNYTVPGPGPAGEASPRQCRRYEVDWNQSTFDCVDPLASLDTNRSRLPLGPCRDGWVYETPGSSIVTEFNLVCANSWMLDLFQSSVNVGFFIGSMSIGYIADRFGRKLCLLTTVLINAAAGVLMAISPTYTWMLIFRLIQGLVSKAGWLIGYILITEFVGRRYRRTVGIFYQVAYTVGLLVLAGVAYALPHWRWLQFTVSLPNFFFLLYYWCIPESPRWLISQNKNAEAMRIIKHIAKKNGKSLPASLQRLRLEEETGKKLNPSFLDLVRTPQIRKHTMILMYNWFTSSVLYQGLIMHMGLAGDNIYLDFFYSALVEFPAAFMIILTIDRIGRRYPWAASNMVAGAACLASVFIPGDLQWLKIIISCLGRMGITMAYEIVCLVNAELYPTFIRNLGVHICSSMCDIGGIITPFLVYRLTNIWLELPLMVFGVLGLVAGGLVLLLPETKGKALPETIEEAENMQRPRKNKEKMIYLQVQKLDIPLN

[1] = human, ratio of the IC50 values of the two enantiomers of the drug
[2] = HEK293, 5 min, read-out: (S)-Zolmitriptan inhibition [%], OCT3, 20 μM inhibitor, 2 μM (S)-zolmitriptan, 5 min
[3] = HEK293, 5 min, read-out: (S,S)-Ethambutol inhibition [%], OCT3, 20 μM inhibitor, 2 μM (S,S)-ethambutol, 5 min
[4] = HEK293, OCT3, 20 μM inhibitor, 2 μM ASP+, 5 min, read-out: ASP+ inhibition [%]
[5] = human, pH 7.4, probe (S,S)-ethambutol (2 μM), (S,S)-Ethambutol inhibition [%], OCT1, 20 μM inhibitor, 2 μM (S,S)-ethambutol, 5 min
[6] = human, pH 7.4, probe ASP+ (2 μM), OCT1, 20 μM inhibitor, 2 μM ASP+, 5 min, mean of three experiments, read-out: ASP+ inhibition [%]
[7] = human, pH 7.4, probe sumatriptan (2 μM), OCT1, 20 μM inhibitor, 2 μM sumatriptan, 5 min, read-out: Sumatriptan inhibition [%]
[8] = human, pH 7.4, probe (S,S)-ethambutol (2 μM), (S,S)-Ethambutol inhibition [%], OCT2, 2 μM (S,S)-ethambutol, 5 min
[9] = human, pH 7.4, probe ASP+ (2 μM), ASP+ inhibition [%], OCT2, 2 μM ASP+, 5 min
[10] = human, pH 7.4, probe N-ethyllidocaine (2 μM), N-Ethyllidocaine inhibition [%], OCT2, 2 μM N-ethyllidocaine, 5 min
[11] = OCT1, 20 μM inhibitor, 2 μM (S,S)-ethambutol, 5 min
[12] = OCT1, 20 μM inhibitor, 2 μM ASP+, 5 min, mean of three experiments
[13] = OCT1, 20 μM inhibitor, 2 μM sumatriptan, 5 min
[14] = OCT2, 2 μM (S,S)-ethambutol, 5 min
[15] = OCT2, 2 μM N-ethyllidocaine, 5 min
[16] = OCT3, 20 μM inhibitor, 2 μM (S)-zolmitriptan, 5 min
[17] = OCT3, 20 μM inhibitor, 2 μM (S,S)-ethambutol, 5 min
[18] = OCT3, 20 μM inhibitor, 2 μM ASP+, 5 min
[19] = IC50, OCT2, Table S5, 2 μM ASP+ as model substrate, 5 min

Molecule | inhibition at 20 µM (OCT3; [2]) | inhibition at 20 µM (OCT3; [3]) | inhibition at 20 µM (OCT3; [4]) | inhibition at 5 min, 20 μM (OCT1; [5]) | inhibition at 5 min, 20 μM (OCT1; [6]) | inhibition at 5 min, 20 μM (OCT1; [7]) | inhibition at 5 min, 20 μM (OCT2; [8]) | inhibition at 5 min, 20 μM (OCT2; [9]) | inhibition at 5 min, 20 μM (OCT2; [10]) | other results
CCCCN1CCCCC1C(=O)Nc1c(C)cccc1C (centres unmarked) [Bupivacaine] |  |  |  |  |  |  |  |  |  | stereoselective inhibition of OCT3 (in words) (OCT3; 20 μM inhibitor): stereoselective inhibition; x-fold Stereoselectivity (OCT1; OCT1, ratio of the IC50 values of the two enantiomers of the drug): 1.2 fold; selectivity ratio at 5 min (OCT1; [1]): 1.8; selectivity ratio at 5 min (OCT2; human, pH 7.4): 2.3
CC(C)Cc1ccc([C@@H](C)C(=O)O)cc1 [(R)-Ibuprofen] | -1.9% | 3.2% | 12.1% | 5.6% | 8.3% | -7.2% | 7% | 11.5% | 7.9% | 
CNCC[C@H](Oc1ccc(C(F)(F)F)cc1)c1ccccc1 [(S)-Fluoxetine] |  |  |  |  |  |  |  |  |  | (S)-Zolmitriptan inhibition [%] (OCT3): 13.8; (S,S)-Ethambutol inhibition [%] (OCT3): 12.3; ASP+ inhibition [%] (OCT3): -3.1; (S,S)-Ethambutol inhibition [%] (OCT1; [11]): 78.6%; ASP+ inhibition [%] (OCT1; [12]): 47.7%; Sumatriptan inhibition [%] (OCT1; [13]): 82.3%; (S,S)-Ethambutol inhibition [%] (OCT2; [14]): 6.4%; ASP+ inhibition [%] (OCT2; OCT2, 2 μM ASP+, 5 min): 56.6%; N-Ethyllidocaine inhibition [%] (OCT2; [15]): 28.7%
COc1ccccc1OCCNC[C@H](O)COc1cccc2[nH]c3ccccc3c12 [(S)-Carvedilol] | 32.8% | 49.5% | 16.3% | 100% | 74.5% | 96.5% | 8.7% | 94.9% | 48.8% | 
CNC[C@H](O)c1cccc(O)c1 [(R)-Phenylephrine] | -2.9% | 5% | -4.1% | 6.3% | 3.2% | -2.8% | -8.4% | 8.2% | -1.4% | 
COc1ccccc1OCCNC[C@@H](O)COc1cccc2[nH]c3ccccc3c12 [(R)-Carvedilol] | 37.9% | 48.6% | 23.5% | 100% | 76.9% | 96.6% | 13.5% | 99.6% | 58.2% | 
CCN(CC)CC#CCOC(=O)C(O)(c1ccccc1)C1CCCCC1 (centres unmarked) [Oxybutynine] |  |  |  |  |  |  |  |  |  | x-fold Stereoselectivity (OCT3; OCT3, ratio of the IC50 values of the two enantiomers of the drug): 1.6 fold; stereoselective inhibition of OCT3 (in words) (OCT3; 20 μM inhibitor): stereoselective inhibition; selectivity ratio at 5 min (OCT1; [1]): 1.2; x-fold Stereoselectivity (OCT2; OCT2, ratio of the IC50 values of the two enantiomers of the drug): 1.6 fold
CC(C)(C)NC[C@@H](O)c1ccc(O)c(CO)c1 [(S)-Salbutamol] |  |  |  |  |  |  |  |  |  | (S)-Zolmitriptan inhibition [%] (OCT3; [16]): -3.4%; (S,S)-Ethambutol inhibition [%] (OCT3; [17]): 14.5%; ASP+ inhibition [%] (OCT3; [18]): 1.3%; (S,S)-Ethambutol inhibition [%] (OCT1; [11]): 9.3%; ASP+ inhibition [%] (OCT1; [12]): 6.1%; Sumatriptan inhibition [%] (OCT1; [13]): -10.2%; (S,S)-Ethambutol inhibition [%] (OCT2; [14]): 3.0%; ASP+ inhibition [%] (OCT2; OCT2, 2 μM ASP+, 5 min): -2.8%; N-Ethyllidocaine inhibition [%] (OCT2; [15]): -17.4%
CC(C)NC[C@@H](O)COc1cccc2ccccc12 [(R)-Propranolol] |  |  |  | 79.9% | 44.8% | 84.3% | 25% | 47.8% | 20% | IC50 (OCT3; OCT3, Table 1, read-out: IC50): 195 µM
C#CCN(C)[C@@H](C)Cc1ccccc1 [(S)-Deprenyl] |  |  |  |  |  |  |  |  |  | (S)-Zolmitriptan inhibition [%] (OCT3): 11.5%; (S,S)-Ethambutol inhibition [%] (OCT3): 20.9%; ASP+ inhibition [%] (OCT3; [18]): 9.6%; ASP+ inhibition [%] (OCT1; [12]): 26.1%; Sumatriptan inhibition [%] (OCT1; human, pH 7.4): 68.6%; IC50 (OCT2; [19]): 3.4 µM; ASP+ inhibition [%] (OCT2; OCT2, 2 μM ASP+, 5 min): 88.0%; N-Ethyllidocaine inhibition [%] (OCT2; [15]): 47.7%; selectivity ratio (OCT2; human, pH 7.4): 1.4
CC(C)(C)NC[C@@H](O)COc1nsnc1N1CCOCC1 [(R)-Timolol] | 7.6% | 8.2% | 28.6% | 32.1% | 12.9% | 55% | 12% | 37.2% | 24.7% | IC50 (OCT2; [19]): 121 µM; selectivity ratio at 5 min (OCT2; human, pH 7.4): 2
CC(C)(C)NC[C@H](O)COc1nsnc1N1CCOCC1 [(S)-Timolol] | 16.8% | 11.1% | 27.8% | 25.6% | 3.9% | 42.1% | 14.4% | 50.1% | 25.1% | IC50 (OCT2; [19]): 60.2 µM
(+)-Sparteine |  |  |  |  |  |  |  |  |  | (S)-Zolmitriptan inhibition [%] (OCT3; [16]): 28.7%; (S,S)-Ethambutol inhibition [%] (OCT3; [17]): 32.7%; ASP+ inhibition [%] (OCT3; [18]): 5.2%; (S,S)-Ethambutol inhibition [%] (OCT1; [11]): 83.5%; Sumatriptan inhibition [%] (OCT1; [13]): 81.6%; ASP+ inhibition [%] (OCT2; OCT2, 2 μM ASP+, 5 min): 112.4%; N-Ethyllidocaine inhibition [%] (OCT2; [15]): 99.9%
CNCC[C@@H](Oc1cccc2ccccc12)c1cccs1 [(R)-Duloxetine] |  |  |  | 85.1% | 41.3% | 86.8% | 33.2% | 53.3% | 50.1% | inhibition at 20 µM (OCT3; HEK293, 5 min, read-out: (S)-Zolmitriptan inhibition [%]): 1.6%; inhibition at 20 µM (OCT3; HEK293, 5 min, read-out: (S,S)-Ethambutol inhibition [%]): 16.7%; inhibition at 20 µM (OCT3; HEK293, read-out: ASP+ inhibition [%]): 3.8%; IC50 (OCT2; IC50): 25.3 µM
